# Measured values: patent US6884423B1, “Antimicrobial histone H1 compositions, kits, and methods of use thereof” (Symbiotec GmbH, priority 1998, dated 2005)
# Columns and labels:
# [1] = test system: E. coli strain AB1157; experiment: Inhibition of the antibiotic activity of histone H1 by heparin; assay type: cell-based, Escherichia coli; conditions: 4 micrograms per milliliter histone H1, 37° C., ten minutes
# Procedure: In selected assays, the incubation medium also contained a selected concentration of heparin, in the range from 0 to about 250 units per milliliter.
# [2] = test system: E. coli strain AB1157; experiment: Fractional survival of histone H1-contacted cells by colony counting
# Procedure: Purified bovine histone H1 was prepared as described herein in Example 1. Cells of E. coli strain AB1157 (obtained from ATCC) were grown in NYET medium (4 grams per liter nutrient broth, 7.5 grams per liter yeast extract, and 4 grams per lither tryptone) at 37° C. E. coli cells in approximately the exponential growth phase were incubated in Sorensen buffer (41 mM Na2HPO4, 25.7 mM KH2PO4) for twenty minutes in the presence of a selected concentration of histone H1. The fractional survival of histone H1-contacted cells, relative to cells which were not contacted with histone H1 was determined by counting colonies using an automated colony counter (3M model 620). About 200 microliters of an H1-containing bacterial suspension was plated into Petri dishes by adding 10 milliliters of 57° C. medium containing 1.5% (w/w) Bacto agar. […]
# Purified bovine histone H1 was prepared as described herein in Example 1. Cells of E. coli strain AB1157 were incubated in Sorensen buffer at a selected temperature for a selected period in the presence of a 1.9 micromolar histone H1 The fractional survival of histone H1-contacted cells, relative to cells not contacted with histone H1 was determined as described herein in Example 4. […] Normal human body temperature is about 37° C. […]
# Purified bovine histone H1 was prepared as described herein in Example 1. Cells of E. coli strain AB1157 were incubated in Sorensen buffer at a selected temperature for a selected period in the presence of a selected concentration histone H1. In selected assays, the medium also contained between 0 and about 10% (v/v) human or bovine serum. The fractional survival of histone H1-contacted cells, relative to cells not contacted with histone H1 was determined as described herein in Example 4. […]
# [3] = test system: Bacillus cereus; experiment: Percent reduction in colony formation (spectrum of antibiotic activity); assay type: cell-based; conditions: 37° C.
# Procedure: (§1) Histone H1 suspended in Sorensen buffer was added to aliquots of individual bacterial cultures to achieve a final concentration of either 1.9 micromolar or 3.8 micromolar. No histone H1 was added to individual control culture aliquots. The aliquots were thereafter incubated at 37° C. for either ten minutes or forty-five minutes, and the aliquots were plated on appropriate solid or semisolid media.
# [4] = test system: Escherichia coli strain AB1157; experiment: as above; assay type: cell-based; conditions: 37° C.
# Procedure: as §1
# [5] = test system: Salmonella enteritidis; experiment: as above; assay type: cell-based; conditions: Incubation time 10 minutes; [Histone H1] 1.9 micromolar; 37° C.
# Procedure: as §1
# [6] = test system: Bacillus megaterium; experiment: as above; assay type: cell-based; conditions: 37° C.
# Procedure: as §1
# [7] = test system: Bacillus subtilis; experiment: as above; assay type: cell-based; conditions: Incubation time 10 minutes; [Histone H1] 1.9 micromolar; 37° C.
# Procedure: as §1
# [8] = test system: Proteus mirabilis; experiment: as above; assay type: cell-based; conditions: Incubation time 10 minutes; [Histone H1] 1.9 micromolar; 37° C.
# Procedure: as §1
# [9] = test system: Pseudomonas aeruginosa; experiment: as above; assay type: cell-based; conditions: 37° C.
# Procedure: as §1
# [10] = test system: Enterococcus faecalis; experiment: as above; assay type: cell-based; conditions: 37° C.
# Procedure: as §1
# [11] = test system: Staphylococcus aureus; experiment: as above; assay type: cell-based; conditions: 37° C.
# Procedure: as §1
# [12] = test system: Serratia marcescens; experiment: as above; assay type: cell-based; conditions: Incubation time 10 minutes; [Histone H1] 1.9 micromolar; 37° C.
# Procedure: as §1
# [13] = test system: animal cells; conditions: on the order of; cited from earlier work
# [14] = test system: E. coli strain AB1157; experiment: Thermal stability of histone H1 (antibiotic activity after storage); assay type: cell-based, Escherichia coli; conditions: for fractional survival of cells: 40 micrograms per milliliter, 37° C., ten minutes
# Procedure: In a first experiment, purified histone H1 was stored at −80° C. for more than thirty-six months.
# In a second experiment, aliquots of purified histone H1 were separately stored at −80° C., at 4° C., and at 37° C. for twenty hours. […] The fractional survival of cells incubated with histone H1 stored at −80° C. was about 0.1%. The fractional survival of cells incubated with histone H1 stored at 4° C. was about 1%. The fractional survival of cells incubated with histone H1 stored at 37° C. was about 6%.
# [15] = test system: non-cancerous eukaryotic cells
# [16] = test system: E. coli strain AB1157; experiment: Binding of histone H1 to bacteria (activity of medium pre-contacted with cells); assay type: cell-based, Escherichia coli; conditions: forty-five minutes pre-incubation with E. coli cells, decanted medium re-inoculated
# Procedure: An aliquot of cells of E. coli strain AB1157 was incubated with histone H1 as described herein in Example 4. After forty-five minutes of incubation, cells were removed by centrifugation and decanting.
# [17] = test system: bacterial cells; experiment: Toxic concentration for bacterial cells; assay type: cell-based
# [18] = test system: penicillin-resistant E. coli strain derived from strain AB1157; experiment: Bacteriocidal effect upon penicillin-resistant bacteria (fractional survival); assay type: cell-based, Escherichia coli; conditions: histone H1 in Sorensen buffer, 37° C.
# Text: Cells of E. coli strain AB1157 were made penicillin-resistant by culturing them in penicillin-containing growth media over a period of several days. The resulting population was completely resistant to penicillin.
# [19] = test system: E. coli strain AB1157; experiment: Membrane damage by Sytox Green dye and flow cytometer; assay type: cell-based, Escherichia coli; conditions: 0.4, 0.95 and 1.9 μM histone H1, 37° C., various time intervals
# Procedure: Membrane damage of E. coli cells was determined at various time intervals, using the dye Sytox Green and a flow cytometer as described (Roth et al., 1997, Appl. Env. Microbiol. 63:2421-2431).
# [20] = test system: E. coli strain AB1157; experiment: Development of bacterial resistance to histone H1; assay type: cell-based, Escherichia coli; conditions: FIG. 6
# Procedure: Purified bovine histone H1 is prepared as described herein in Example 1. Cells of E. coli strain AB1157 are incubated in aliquots of Sorensen buffer containing various set concentrations of histone H1. The aliquot having the highest histone H1 concentration in which cells proliferate (as indicated, for example, by turbidity of the buffer) is used to seed cultures having even higher histone H1 concentrations. This process is repeated until cells are isolated which grow at a concentration of histone H1 that is normally toxic to E. coli cells.
# [21] = test system: various strains of E. coli isolated from urinary tract infections; experiment: Exposure time dependence of antibiotic activity, urinary tract infection isolates; assay type: cell-based, Escherichia coli; conditions: after thirty minutes; all strains
# Procedure: Histone H1 suspended in Sorensen buffer was added to aliquots of individual bacterial cultures to achieve a final concentration of either 1.9 micromolar or 3.8 micromolar. No histone H1 was added to individual control culture aliquots. […]
# [22] = Incubation time 10 minutes, [Histone H1] 1.9 micromolar
# [23] = Incubation time 10 minutes, [Histone H1] 3.8 micromolar
# [24] = Incubation time 45 minutes, [Histone H1] 1.9 micromolar
# [25] = Incubation time 45 minutes, [Histone H1] 3.8 micromolar
molecule,measurement,setting,value
heparin,heparin concentration at which histone H1 exhibited essentially no antibiotic activity,[1],greater than 150 units per milliliter
same,lowest heparin concentration that reduced the antibiotic activity of histone H1,[1],6.2 units per milliliter
"NC[C@H]1O[C@H](O[C@H]2[C@H](O)[C@@H](O[C@H]3O[C@H](CO)[C@@H](O)[C@H](N)[C@H]3O)[C@H](N)C[C@@H]2N)[C@H](O)[C@@H](O)[C@@H]1O [kanamycin, reference compound]",cytotoxicity,"[2]; 1.9 micromolar, 37° C., ten minutes, Sorensen buffer",no measurable cytotoxicity
histone H1,Percent Reduction in Colony Formation,[3]; [22],11.8%
same,Percent Reduction in Colony Formation,[3]; [23],50.7%
same,Percent Reduction in Colony Formation,[3]; [24],42.5%
same,Percent Reduction in Colony Formation,[3]; [25],77.4%
same,Percent Reduction in Colony Formation,[4]; [22],99.6%
same,Percent Reduction in Colony Formation,[4]; [23],99.9%
same,Percent Reduction in Colony Formation,[4]; [24],99.7%
same,Percent Reduction in Colony Formation,[4]; [25],100%
same,Percent Reduction in Colony Formation,[5],>99%
same,Percent Reduction in Colony Formation,[6]; [22],93.3%
same,Percent Reduction in Colony Formation,[6]; [23],91.2%
same,Percent Reduction in Colony Formation,[6]; [24],92.9%
same,Percent Reduction in Colony Formation,[6]; [25],99.3%
same,Percent Reduction in Colony Formation,[7],97.4%
same,Percent Reduction in Colony Formation,[8],0.0%
same,Percent Reduction in Colony Formation,[9]; [22],99.6%
same,Percent Reduction in Colony Formation,[9]; [23],100%
same,Percent Reduction in Colony Formation,[9]; [24],100%
same,Percent Reduction in Colony Formation,[9]; [25],100%
same,Percent Reduction in Colony Formation,[10]; [22],0.0%
same,Percent Reduction in Colony Formation,[10]; [23],0.0%
same,Percent Reduction in Colony Formation,[10]; [24],0.0%
same,Percent Reduction in Colony Formation,[10]; [25],0.0%
same,Percent Reduction in Colony Formation,[11]; [22],0.0%
same,Percent Reduction in Colony Formation,[11]; [23],0.0%
same,Percent Reduction in Colony Formation,[11]; [24],0.0%
same,Percent Reduction in Colony Formation,[11]; [25],0.0%
same,Percent Reduction in Colony Formation,[12],14.0%
same,concentrations that may induce death of animal cells,[13],10 to 100 µM
same,fractional survival of cells,[14]; histone H1 stored at 4° C. for twenty hours,about 1%
same,fractional survival of cells,[14]; histone H1 stored at 37° C. for twenty hours,about 6%
same,fractional survival of cells,[14]; histone H1 stored at −80° C. for twenty hours,about 0.1%
same,antibiotic activity after storage,[14]; stored at −80° C. for more than thirty-six months,not significantly decreased
same,toxic concentration,[15],more than 200 or 250 micrograms per milliliter
same,binding to bacteria,[16],binds specifically to bacteria in a non-reversible manner
same,toxic concentration,[17]; bacterial cells,less than 80 micrograms per milliliter
same,concentrations that induce death of bacterial cells,"[17]; relatively low concentrations, as described herein",0.2 to 4 µM
same,killing of penicillin-resistant cells compared with wild type cells,[18],killed penicillin-resistant cells approximately as efficiently as it killed wild type cells
same,lowest H1 concentration at which significant cytotoxicity was observed,[2],0.24 µM
same,dependence of antibiotic activity on serum,[2]; 0 to about 10% (v/v) human AB serum or fetal calf serum,independent of serum concentrations at concentrations at least as high as 10% (v/v) serum
same,incubation time sufficient to achieve maximal cytotoxic effect,"[2]; 1.9 micromolar H1, 37° C.",less than ten
same,temperature dependency of bactericidal effect,"[2]; 1.9 micromolar histone H1, 4° C., 30° C., 37° C.",significantly greater at 37 °C than at either 4 °C or 30 °C
same,E. coli cells killed,"[2]; histone H1 concentration less than 1 micromolar, twenty minutes in Sorensen buffer",more than 98%
same,fraction of the cells which exhibited membrane damage,[19],dependent on the concentration of histone H1
same,development of resistance of E. coli cells to the antibiotic activity,[20],can develop resistance
same,survival,[21],less than 3%
"Trypsin: Protease used to digest histone H1; tested alone as control (protein, UniProt P00760 24-246, looked up) Serine protease 1: IVGGYTCGANTVPYQVSLNSGYHFCGGSLINSQWVVSAAHCYKSGIQVRLGEDNINVVEGNEQFISASKSIVHPSYNSNTLNNDIMLIKLKSAASLNSRVASISLPTSCASAGTQCLISGWGNTKSSGTSYPDVLKCLKAPILSDSSCKSAYPGQITSNMFCAGYLEGGKDSCQGDSGGPVVCSGKLQGIVSWGSGCAQKNKPGVYTKVCNYVSWIKQTIASN",effect on survival of the bacteria,[2]; trypsin alone,had no effect on the survival of the bacteria
